From patent publication EP1170012A1, “CEREBROVASCULAR REGENERATION/RECONSTRUCTION PROMOTERS AND NERVE TISSUE SECONDARY DEGENERATION INHIBITORS COMPRISING GINSENOSIDE RB 1?” (priority 1999, dated 2000)
Like-named read-outs stand apart in the source and are kept apart here. Marks after values point to notes of the source that are not given here.

Experiments:
SH-SP rats [1] = assay: Ratio of cerebrovascular area in the non-infarcted ischemic penumbra of the parietal lobe; assay type: in vivo; conditions: for ischemic side (%), ratio of the cerebrovascular area: non-infarcted ischemic penumbra; for ischemic side (%), ratio of the cerebrovascular area / intact side (%), ratio of the cerebrovascular area: mean ± SE, N = 5; for intact side (%), ratio of the cerebrovascular area: per 1.27 mm^2
Source text: Next, we prepared paraffin sections, 5 µm thickness, obtained from brain samples at the level about 2.8 mm posterior to the bregma. Then, we measured the cerebrovascular area per 1.27 mm^2 of the non-infarcted ischemic penumbra in the parietal lobe. This was done for each of the cerebral hemisphere of a group to which ginsenoside Rb1 had been administered intravenously (i.e. the brain tissues had been rescued by administration of ginsenoside Rb1) (Fig. 5). Four sheets of differential interference contrast micrograph were used for measurement (Fig. 6), and the ratio of the cerebrovascular area was calculated (Table 1).
The isolated brain was embedded in paraffin, and paraffin sections, 5µm thick, at the level approximately 2.8 mm posterior to bregma including the cerebrocortical infarct lesion were prepared. Then, we measured the cerebrovascular area per 1.27 mm^2 of the ischemic penumbra rescued by intravenous administration of ginsenoside Rb1. This was done for each of the cerebral hemispheres of the groups to which ginsenoside Rb1 had been administered intravenously (i.e. the brain tissues had been rescued by administering ginsenoside Rb1) (Fig. 5). Four sheets of differential interference contrast micrograph were used for measurement (Fig. 6), and the ratio of the cerebrovascular area was calculated (Table 1). The ratio of cerebrovascular area was also measured in the control hemisphere (intact side).
Fig. 5 is a drawing showing the region for measurement of blood vessel area in the non-infarcted ischemic penumbra of the parietal lobe in a 5µm thick section of the brain. In Fig. 5, the part enclosed with a rectangle is the region for measurement of blood vessel area: cerebrocortical layers II - IV of the parietal lobe; the part painted with black in Fig. 5 is the infarct lesion when ginsenoside Rb1 was administered; and the part shown in gray in Fig. 5 is the infarcted lesion when physiological saline was administered.
Data are represented by mean ± SE. Statistical analyses are conducted by ANOVA + Fisher's PLSD. N = 5.

[2] = test system: glutamate-mediated neurotoxicity; conditions: cited from earlier work
gerbils = conditions: cited from earlier work
Bcl-XL = conditions: 1 fg/ml to 100 fg/ml; cited from earlier work
[3] = in vivo, po; cited from earlier work
SH-SP rats [4] = assay: Secondary degeneration of the thalamus: thalamic area ratio and nerve cell count in the VP thalamic nucleus; assay type: in vivo; conditions: mean ± SE; for ratio of area (%), left thalamic area to right thalamic area: ischemic side/intact side × 100, p < 0.05; for count of nerve cells: per 0.099 mm^2 of the ventral posterior nucleus of the thalamus, p < 0.01
Method: Further, paraffin sections prepared from brain samples at the level 3.6 mm posterior to bregma were subjected to Nissl staining, and the ratio of the left thalamic area to the right thalamic area (ischemic side/intact side × 100) at the same level was measured. […] In addition, we have investigated the histological patterns of the ventral posterior nucleus of the thalamus (VP thalamic nucleus) which has reciprocal synaptic connections (fiber connections) with the ischemic core of the cerebral cortex. […] […] Data are represented as mean ± SE. Statistical analyses were conducted by Mann-Whitney U-test. In Table 2, *: p < 0.05, **: p < 0.01.

SH-SP) rats = conditions: cited from earlier work
rats [5] = conditions: rat, in vivo; cited from earlier work
lipid peroxides = conditions: cited from earlier work
[6] = test system: normal cultured nerve cells or neurons; conditions: cited from earlier work
[7] = in vivo; cited from earlier work
rats [8] = conditions: rat, in vivo
Source text: It has also been reported that no effects of intracerebroventricular administration of ginsenoside Rb1 on brain temperature, cerebral blood flow and blood pressure are observed (Lim J.-H. et al. Neurosci. Res., 28, 191-200, 1997; Zhang B. et al., J. Stroke Cerebrovasc. Dis., 7, 1-9, 1998).

SH-SP rats [9] = assay type: in vivo; conditions: for learning disability in the water maze tests: also 1st day at the 4th week
Method: (§1) First, we examined the actions of intravenous infusion of ginsenoside Rb1. For this purpose, for example, male SH-SP rats, weighing 250 - 300 g at the age of 12-13 weeks were used. The animals were bred in an air-conditioned room with a 12:12 hour light-dark cycle, and water and feeds were supplied ad libitum. The cortical branch of the left middle cerebral artery (MCA) was coagulated and cut under inhalation anesthesia.
After MCA permanent occlusion, according to the method of the inventors of the present invention (Sakanaka and Tanaka) (Igase, K. et al., J. Cereb. Blood Flow Metab., 19, 298-306, 1999; Zhang B. et al., J. Stroke Cerebrovasc. Dis., 7, 1-9, 1998), water maze tests were performed for 4 days at the 2nd week and the 4th week, respectively, and the place navigation abilities of SH-SP rats were determined.
(§2) Male SH-SP rats, at the age of 12-13 weeks, (stroke-prone spontaneously hypertensive rat: weighing 250 - 300 g), were used. Animals were housed in an air-conditioned room furnished with a 12:12 hour light-dark cycle, and water and feeds were supplied ad libitum. The mean blood pressure of the animals was 203±6.9 mmHg. The following experiments were conducted in accordance with the Guide for Animal Experimentation at Ehime University School of Medicine. The cortical branch of the left middle cerebral artery (MCA) of SH-SP rats were coagulated and cut, while their rectal temperature was maintained at 37±0.2°C under inhalation anesthesia.
Immediately after MCA permanent occlusion, […] of physiological saline containing ginsenoside Rb1 at a concentration of 1µg/µl or 0.1µg/µl (60µg or 6µg as ginsenoside Rb1) was injected once into the left femoral vein. Then a catheter connected to the Alza osmotic minipump implanted subcutaneously in the back of each animal was inserted into the same vein from the point of the single injection of ginsenoside Rb1. Physiological saline containing ginsenoside Rb1 was filled in advance in the said osmotic minipump, and ginsenoside Rb1 in a dose of 60µg/day or 6µg/day was continuously infused into the blood stream through the catheter placed in the left femoral vein for 28 days. Flow rate of the ginsenoside Rb1-containing solution was 0.25µl/hour. Control animals with MCA permanent occlusion (ischemic control animals) and sham-operated animals received the same amount of physiological saline.
After the MCA permanent occlusion according to the method of the inventors of the present invention (Sakanaka and Tanaka) (Igase, K. et al., J. Cereb. Blood Flow Metab., 19, 298-306, 1999; Zhang B. et al., J. Stroke Cerebrovasc. Dis., 7, 1-9, 1998), water maze tests were performed for 4 days at the 2nd week and the 4th week, respectively, and place navigation abilities of the SH-SP rats were determined.

SH-SP rats [10] = assay: Ratio of cerebrocortical infarction after MCA permanent occlusion, intravenous infusion; assay type: in vivo
Method: as §1
After the water maze tests at the 4th week, the SH-SP rats were anesthetized with chloral hydrate, and they were perfused and fixed transcardially with 0.1 mole phosphate buffer containing 4% paraformaldehyde. The brains were dissected out and cerebrocortical infarcted areas were photographed. Areas of the left cerebral hemispheres and the left cerebrocortical infarct lesions were measured on the photographs by using an image analysis device. The left cerebrocortical infarcted areas were divided by the left cerebral hemispheric areas to calculate ratios of the cerebrocortical infarction (%).
as §2, with “anesthesia. […]” for “anesthesia.”
After termination of the water maze tests at the 4th week, the SH-SP rats were anesthetized with chloral hydrate, and they were perfused and fixed transcardially with 0.1 mole phosphate buffer containing 4% paraformaldehyde. […] Areas of the left cerebral hemispheres and the left cerebrocortical infarct lesions were measured on the photographs by using an image analysis device. […]

[11] = test system: apoptosis-like nerve cell death; conditions: 1 fg/ml to 100 fg/ml; cited from earlier work
cultured nerve cells = conditions: 1 - 100 fg/ml in culture medium; cited from earlier work
[12] = 6µg/day intravenous for 28 days after MCA permanent occlusion
[13] = 60µg/day intravenous for 28 days after MCA permanent occlusion

Method for Wistar rats: We used Wistar rats, (weighing about 300 g), which were loaded with 20 g of compression to the lower thoracic cord for 20 minutes, as an animal model for spinal cord injuries. The rats were anesthetized by inhalation of halothane in a mixture of nitrous oxide and oxygen and were loaded with 20 g of compression to the lower thoracic cord for 20 minutes. More than 30 minutes later, ginsenoside Rb1 dissolved in physiological saline was infused once into the left femoral vein (12 µg or 60 µg). Subsequently continuous intravenous administration of ginsenoside Rb1 was performed for 7 days by using an Alza osmotic minipump (12µg/day or 60µg/day). Control animals' and sham-operated animals were administered with the same amount of physiological saline (vehicle). The open field locomotor scores [Basso, Bettie and Bresnakan (BBB) scores] were measured before the loading of spinal cord injury, on the day of spinal cord injury, and from the 1st day to the 7th day after spinal cord injury in order to determine an index of motor functions (Basso D.M. et al., J. Neurotrauma, 13, 343-359, 1996). […] The rats were anesthetized with inhalation of halothane in a mixture of nitrous oxide and oxygen and were loaded with 20 g of compression to the lower thoracic cord for 20 minutes. More than 30 minutes later, ginsenoside Rb1 dissolved in physiological saline was injected once into the left femoral vein (12µg or 60µg), thereafter continuous intravenous administration of ginsenoside Rb1 was performed for 7 days by using an Alza osmotic minipump (12µg/day or 60µg/day). Control animals and sham-operated animals were administered with the same amount of physiological saline (vehicle). The open field locomotor scores [Basso, Bettie and Bresnakan (BBB) scores] were measured before loading spinal cord injury, on the day of spinal cord injury and from the 1st day to the 7th day after the spinal cord injury for use as an index of motor functions (Basso D.M. et al., J. Neurotrauma, 13, 343-359, 1996).

For `CC(C)=CCC[C@](C)(O[C@@H]1O[C@H](CO[C@@H]2O[C@H](CO)[C@@H](O)[C@H](O)[C@H]2O)[C@@H](O)[C@H](O)[C@H]1O)[C@H]1CC[C@]2(C)[C@@H]1[C@H](O)C[C@@H]1[C@@]3(C)CC[C@H](O[C@@H]4O[C@H](CO)[C@@H](O)[C@H](O)[C@H]4O[C@@H]4O[C@H](CO)[C@@H](O)[C@H](O)[C@H]4O)C(C)(C)[C@@H]3CC[C@]12C` [ginsenoside Rb1, Ginsenoside Rb1], which “ratios of the cerebrovascular areas, control side versus ischemic side” value (SH-SP rats [1]; 6µg/day and 60 µg/day intravenous, 28 days after MCA permanent occlusion) is on record?
The value was “no significant difference”.

And the “ischemic side (%), ratio of the cerebrovascular area” value (SH-SP rats [1]; [12])?
The value was 8.0 ± 0.58%.

What about the “intact side (%), ratio of the cerebrovascular area” value (SH-SP rats [1]; [12]) of the same compound?
Its value is 7.0 ± 0.64%.

What about the “ischemic side (%), ratio of the cerebrovascular area” value (SH-SP rats [1]; [13]) of the same compound?
The value was 9.0 ± 0.52%.

What about the “intact side (%), ratio of the cerebrovascular area” value (SH-SP rats [1]; [13]) of the same compound?
The value was 8.3 ± 0.92%.

And the neurotoxicity [2]?
The neurotoxicity was “increased neurotoxicity”.

What about the glutamate-mediated neurotoxicity ([2]; high concentrations (0.11-11 µg/ml)) of the same compound?
Its glutamate-mediated neurotoxicity is “reduce glutamate-mediated neurotoxicity”.

What about the “delayed neuronal death and learning disability” value (gerbils; intracerebroventricular infusion starting immediately after 3 or 3.5 minutes carotid occlusion) of the same compound?
Its value is “suppresses the delayed neuronal death and learning disability”.

And the “hippocampal CA1 pyramidal neurons rescued” value (gerbils; intraperitoneal 10 mg/kg/day or 20 mg/kg/day before ischemic loading)?
Its value is “about 30%”.

And the “delayed neuronal death and learning disability” value (gerbils; intraperitoneal 10 or 20 mg/kg/day once a day for one week in advance, 5 minutes carotid occlusion)?
Its value is “significantly prevent”.

What about the “effect of administration after the ischemic insult” value (gerbils; intraperitoneal, after the ischemic insult) of the same compound?
Its value is “no effect”.

And the “expression of Bcl-XL” value (Bcl-XL)?
Its value is “increasing the expression”.

And the detection in blood [3]?
The detection in blood was “can not be detected in blood”.

And the “ratio of area (%), left thalamic area to right thalamic area” value (SH-SP rats [4]; 6µg/day intravenous)?
The value was 95.9 ± 3.3* %.

What about the “count of nerve cells” value (SH-SP rats [4]; 6µg/day intravenous) of the same compound?
The value was 30.6 ± 2.9**.

And the “ratio of area (%), left thalamic area to right thalamic area” value (SH-SP rats [4]; 60µg/day intravenous)?
Its value is 95.3 ± 2.4* %.

And the “count of nerve cells” value (SH-SP rats [4]; 60µg/day intravenous)?
The value was 31.5 ± 3.6**.

And the “effect on cerebral infarction” value (SH-SP) rats; continuous intracerebroventricular infusion 0.6µg/day after MCA occlusion)?
The value was “significant suppressive effect”.

What about the “effect on cerebral infarction” value (SH-SP) rats; continuous intracerebroventricular infusion 6µg/day or 0.06µg/day after MCA permanent occlusion) of the same compound?
Its value is “no therapeutic effect”.

What about the “brain temperature, cerebral blood flow and blood pressure” value (rats [5]) of the same compound?
Its value is “no effects”.

And the “formation of lipid peroxides” value (lipid peroxides; 100 fg/ml)?
Its value is “slightly suppressive action”.

What about the “formation of lipid peroxides” value (lipid peroxides; lower concentration range than 100 fg/ml) of the same compound?
The value was “no such effect was observed”.

And the “normal metabolic activity of cultured nerve cells” value [6]?
Its value is “no effect on normal metabolic activity”.

What about the SNP-induced injuries ([6]; low extracellular concentrations (1 - 100 fg/ml)) of the same compound?
Its SNP-induced injuries is “protects only nerve cells against SNP-induced injuries”.

And the “transfer to the central nervous system” value [7]?
The value was “transferred rapidly”.

What about the adverse effects (rats [8]) of the same compound?
The adverse effects was “No adverse effects were detected”.

What about the “place navigation disability after MCA permanent occlusion” value (SH-SP rats [9]; 6µg/day or 60µg/day intravenous, compared with physiological saline group) of the same compound?
The value was “significantly improved”.

And the “learning disability in the water maze tests” value (SH-SP rats [9]; high dose (60µg/day), 4th day at the 2nd week, 3rd and 4th days at the 4th week)?
The value was “significantly ameliorated”.

What about the “learning disability in the water maze tests” value (SH-SP rats [9]; low dose (6µg/day), 3rd and 4th day at the 2nd and 4th week) of the same compound?
Its value is “significantly ameliorated”.

And the “swimming speed of SH-SP rats” value (SH-SP rats [9]; rat, in vivo)?
Its value is “No significant differences”.

What about the “ratio of cerebrocortical infarction” value (SH-SP rats [10]; 6µg/day or 60µg/day intravenous for 28 days, compared with physiological saline group) of the same compound?
Its value is “significantly reduced”.

And the “mean value of the ratio of cerebrocortical infarction compared with that of the physiological saline group” value (SH-SP rats [10]; groups intravenously administered, about 50% or less)?
Its value is ≤ 50%.

And the “actual volume of infarction relative to physiological saline group” value (SH-SP rats [10]; intravenous administration, inferred from the area ratio)?
Its value is “about 1/4”.

What about the “apoptosis-like nerve cell death” value [11] of the same compound?
Its value is “suppresses apoptosis-like nerve cell death”.

And the “neuronal necrosis caused by ferrous sulfate” value (cultured nerve cells)?
The value was “reduces neuronal necrosis”.

What about the “motor ability (BBB scores)” value (Wistar rats; 12µg/day or 60µg/day intravenous, 7th day after spinal cord injuries, dose-dependent) of the same compound?
Its value is “significantly ameliorated”.

What about the “paraplegia of both hindlimbs” value (Wistar rats; 60 µg/day intravenous after 20 g compression for 20 minutes, after 2 days) of the same compound?
The value was “significantly ameliorated”.

And the “wound healing of the dorsal skin incision” value (Wistar rats; rat, in vivo)?
The value was “no such adverse effects were noted”.
